Measured values from patent US5958683A, “Screening method using the RZR receptor family” (priority 1994, dated 1999).

Columns and labels:
adjuvant arthritis = details: known to be active or inactive; cited from earlier work
RZR/RORα = biological target: T1, RZR/RORα (Homo sapiens, UniProt P35398); experiment: CAT reporter assay for ligand induced activation, Drosophila SL-3 cells transfected with RZR/RORα; type: cell-based; details: when applied in the nanomolar range
T1 construct: RZRα is likely the RORalpha4 splice form
T1 sequence (P35398 1-523): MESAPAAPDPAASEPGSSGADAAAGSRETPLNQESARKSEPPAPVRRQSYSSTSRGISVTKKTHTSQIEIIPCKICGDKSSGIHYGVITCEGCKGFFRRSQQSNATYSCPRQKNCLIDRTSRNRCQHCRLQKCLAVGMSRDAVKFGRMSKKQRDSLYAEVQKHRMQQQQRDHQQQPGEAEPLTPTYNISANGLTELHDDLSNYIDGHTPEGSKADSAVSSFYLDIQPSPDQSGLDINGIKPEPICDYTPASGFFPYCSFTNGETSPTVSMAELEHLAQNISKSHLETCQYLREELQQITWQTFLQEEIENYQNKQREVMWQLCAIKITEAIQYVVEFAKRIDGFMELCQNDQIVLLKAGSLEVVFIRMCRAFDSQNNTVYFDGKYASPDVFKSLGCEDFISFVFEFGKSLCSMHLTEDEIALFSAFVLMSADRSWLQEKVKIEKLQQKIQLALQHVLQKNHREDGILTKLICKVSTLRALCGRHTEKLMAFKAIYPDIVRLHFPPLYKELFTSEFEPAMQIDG
Procedure: After dilution with 0.9 ml Schneider's medium, the liposomes are added to the cells.
The values given in table 1 represent the mean activation of CAT activities measured in three independent experiments, compared to the addition of pure solvent (ethanol).

## CC1=C(/C=C/C(C)=C/C=C/C(C)=C/C(=O)O)C(C)(C)CCC1 [9-cis RA, retinoic acid]
Adjuvant arthritis
  activity in adjuvant arthritis: -

## CC1=C(/C=C/C(C)=C/C=C/C(C)=C/C(=O)O)C(C)(C)CCC1 [all trans RA, retinoic acid]
Adjuvant arthritis
  activity in adjuvant arthritis: -

## COc1ccc2[nH]cc(CCNC(C)=O)c2c1 [melatonin]
RZR/RORα
  affinity to the RZR/RORα receptor: high affinity

## C=C1/C(=C\C=C2/CCC[C@]3(C)[C@@H]([C@H](C)CCCC(C)(C)O)CC[C@@H]23)C[C@@H](O)C[C@@H]1O [vitamin D, 1,25-dihydroxyvitaminD3]
Adjuvant arthritis
  activity in adjuvant arthritis: -
